Test results: ChEMBL document CHEMBL3885881, “DrugMatrix”

Organism: Rattus norvegicus
Assay: DrugMatrix - Regimen: Daily Repeat
Assay type: toxicity, organism-based, Sprague-Dawley
Set-up: regimen Daily Repeat, gender Male, age 6-8 weeks
Conditions: in vivo, po, 0 mg/kg, route oral GAVAGE, dose level Control, vehicle .5 % CMC; for BASOPHIL / EOSINOPHIL / ERYTHROCYTE COUNT / HEMATOCRIT / HEMOGLOBIN / LEUKOCYTE COUNT / LYMPHOCYTE / MEAN CORPUSCULAR HEMOGLOBIN / MEAN CORPUSCULAR HEMOGLOBIN CONCENTRATION / MEAN CORPUSCULAR VOLUME / MONOCYTE / NEUTROPHIL / PLATELET COUNT: tissue Blood; for ALANINE AMINOTRANSFERASE / ALBUMIN / ALKALINE PHOSPHATASE / ASPARTATE AMINOTRANSFERASE / BLOOD UREA NITROGEN / CARBON DIOXIDE / CHLORIDE / CHOLESTEROL / CREATINE PHOSPHOKINASE / CREATININE / GLUCOSE / LACTATE DEHYDROGENASE / LIPASE / PHOSPHORUS / POTASSIUM / SODIUM / TOTAL BILIRUBIN / TOTAL PROTEIN / URIC ACID: tissue Plasma

`Cc1ccc([N+](=O)[O-])cc1` [4-NITROTOLUENE] was tested, and the BASOPHIL (96 h, time 4 day) was 0.5%, the EOSINOPHIL (96 h, time 4 day) was 1.85% and the “ERYTHROCYTE COUNT” value (96 h, time 4 day) was 6.99 x10E6/uL. For the same molecule, the HEMATOCRIT (96 h, time 4 day) was 43.82%, the HEMOGLOBIN (96 h, time 4 day) was 13.87 G/DL and the “LEUKOCYTE COUNT” value (96 h, time 4 day) was 12.01 x10E3/uL. The LYMPHOCYTE (96 h, time 4 day) was 82.07%, the “MEAN CORPUSCULAR HEMOGLOBIN” value (96 h, time 4 day) was 19.8 pg and the “MEAN CORPUSCULAR HEMOGLOBIN CONCENTRATION” value (96 h, time 4 day) was 31.63 G/DL. The “MEAN CORPUSCULAR VOLUME” value (96 h, time 4 day) was 62.7 fL, the MONOCYTE (96 h, time 4 day) was 2.6% and the NEUTROPHIL (96 h, time 4 day) was 12.38%. For the same molecule, the “PLATELET COUNT” value (96 h, time 4 day) was 1155 x10E3/uL, the “ALANINE AMINOTRANSFERASE” value (96 h, time 4 day) was 31.67 u/L and the ALBUMIN (96 h, time 4 day) was 4.12 G/DL. For the same molecule, the “ALKALINE PHOSPHATASE” value (96 h, time 4 day) was 396 u/L, the “ASPARTATE AMINOTRANSFERASE” value (96 h, time 4 day) was 75.67 u/L and the “BLOOD UREA NITROGEN” value (96 h, time 4 day) was 17.5 mg/dL. The “CARBON DIOXIDE” value (96 h, time 4 day) was 28.83 mmol/L, the CHLORIDE (96 h, time 4 day) was 103.83 MEQ/L and the CHOLESTEROL (96 h, time 4 day) was 84.83 mg/dL. For the same molecule, the “CREATINE PHOSPHOKINASE” value (96 h, time 4 day) was 597.17 u/L, the CREATININE (96 h, time 4 day) was 0.3 mg/dL and the GLUCOSE (96 h, time 4 day) was 161.5 mg/dL. The “LACTATE DEHYDROGENASE” value (96 h, time 4 day) was 138.67 u/L, the LIPASE (96 h, time 4 day) was 11.5 u/L and the PHOSPHORUS (96 h, time 4 day) was 11.58 mg/dL. The POTASSIUM (96 h, time 4 day) was 6.87 MEQ/L, the SODIUM (96 h, time 4 day) was 146.83 MEQ/L and the “TOTAL BILIRUBIN” value (96 h, time 4 day) was 0.38 mg/dL. The “TOTAL PROTEIN” value (96 h, time 4 day) was 6.33 G/DL, the “URIC ACID” value (96 h, time 4 day) was 1.37 mg/dL and the BASOPHIL ([…], time 6 day) was 0.37%. For the same molecule, the EOSINOPHIL ([…], time 6 day) was 0.38%, the “ERYTHROCYTE COUNT” value ([…], time 6 day) was 6.89 x10E6/uL and the HEMATOCRIT ([…], time 6 day) was 47.38%. For the same molecule, the HEMOGLOBIN ([…], time 6 day) was 14.8 G/DL, the “LEUKOCYTE COUNT” value ([…], time 6 day) was 13.59 x10E3/uL and the LYMPHOCYTE ([…], time 6 day) was 80.27%. For the same molecule, the “MEAN CORPUSCULAR HEMOGLOBIN” value ([…], time 6 day) was 21.52 pg, the “MEAN CORPUSCULAR HEMOGLOBIN CONCENTRATION” value ([…], time 6 day) was 31.22 G/DL and the “MEAN CORPUSCULAR VOLUME” value ([…], time 6 day) was 68.83 fL. The MONOCYTE ([…], time 6 day) was 2.78%, the NEUTROPHIL ([…], time 6 day) was 15.65% and the “PLATELET COUNT” value ([…], time 6 day) was 1330.17 x10E3/uL. For the same molecule, the BASOPHIL ([…], time 14 day) was 0.38%, the EOSINOPHIL ([…], time 14 day) was 0.6% and the “ERYTHROCYTE COUNT” value ([…], time 14 day) was 7.78 x10E6/uL. For the same molecule, the HEMATOCRIT ([…], time 14 day) was 48.3%, the HEMOGLOBIN ([…], time 14 day) was 15.42 G/DL and the “LEUKOCYTE COUNT” value ([…], time 14 day) was 13.55 x10E3/uL. For the same molecule, the LYMPHOCYTE ([…], time 14 day) was 81.18%, the “MEAN CORPUSCULAR HEMOGLOBIN” value ([…], time 14 day) was 19.8 pg and the “MEAN CORPUSCULAR HEMOGLOBIN CONCENTRATION” value ([…], time 14 day) was 31.92 G/DL. For the same molecule, the “MEAN CORPUSCULAR VOLUME” value ([…], time 14 day) was 62.08 fL, the MONOCYTE ([…], time 14 day) was 1.72% and the NEUTROPHIL ([…], time 14 day) was 15.17%. The “PLATELET COUNT” value ([…], time 14 day) was 1083.83 x10E3/uL, the “ALANINE AMINOTRANSFERASE” value ([…], time 6 day) was 36 u/L and the ALBUMIN ([…], time 6 day) was 4.03 G/DL. The “ALKALINE PHOSPHATASE” value ([…], time 6 day) was 354.17 u/L, the “ASPARTATE AMINOTRANSFERASE” value ([…], time 6 day) was 76.5 u/L and the “BLOOD UREA NITROGEN” value ([…], time 6 day) was 19.33 mg/dL. The “CARBON DIOXIDE” value ([…], time 6 day) was 27.83 mmol/L, the CHLORIDE ([…], time 6 day) was 105.5 MEQ/L and the CHOLESTEROL ([…], time 6 day) was 68.83 mg/dL. The “CREATINE PHOSPHOKINASE” value ([…], time 6 day) was 383.83 u/L, the CREATININE ([…], time 6 day) was 0.35 mg/dL and the GLUCOSE ([…], time 6 day) was 165.83 mg/dL. The “LACTATE DEHYDROGENASE” value ([…], time 6 day) was 155.17 u/L, the LIPASE ([…], time 6 day) was 9.83 u/L and the PHOSPHORUS ([…], time 6 day) was 12.4 mg/dL. For the same molecule, the POTASSIUM ([…], time 6 day) was 6.9 MEQ/L, the SODIUM ([…], time 6 day) was 147.33 MEQ/L and the “TOTAL BILIRUBIN” value ([…], time 6 day) was 0.52 mg/dL. For the same molecule, the “TOTAL PROTEIN” value ([…], time 6 day) was 6.42 G/DL, the “URIC ACID” value ([…], time 6 day) was 1.6 mg/dL and the “ALANINE AMINOTRANSFERASE” value ([…], time 14 day) was 36.83 u/L. The ALBUMIN ([…], time 14 day) was 4.13 G/DL, the “ALKALINE PHOSPHATASE” value ([…], time 14 day) was 328.17 u/L and the “ASPARTATE AMINOTRANSFERASE” value ([…], time 14 day) was 74.83 u/L. For the same molecule, the “BLOOD UREA NITROGEN” value ([…], time 14 day) was 18.67 mg/dL, the “CARBON DIOXIDE” value ([…], time 14 day) was 29.33 mmol/L and the CHLORIDE ([…], time 14 day) was 105.17 MEQ/L. For the same molecule, the CHOLESTEROL ([…], time 14 day) was 72 mg/dL, the “CREATINE PHOSPHOKINASE” value ([…], time 14 day) was 217.67 u/L and the CREATININE ([…], time 14 day) was 0.45 mg/dL. The GLUCOSE ([…], time 14 day) was 151.17 mg/dL, the “LACTATE DEHYDROGENASE” value ([…], time 14 day) was 133.17 u/L and the LIPASE ([…], time 14 day) was 14.5 u/L. For the same molecule, the PHOSPHORUS ([…], time 14 day) was 11.55 mg/dL, the POTASSIUM ([…], time 14 day) was 6.77 MEQ/L and the SODIUM ([…], time 14 day) was 149.33 MEQ/L. The “TOTAL BILIRUBIN” value ([…], time 14 day) was 0.37 mg/dL, the “TOTAL PROTEIN” value ([…], time 14 day) was 6.62 G/DL and the “URIC ACID” value ([…], time 14 day) was 1.57 mg/dL.
